In general, EC50 refers to the concentration needed to bring the measured effect to its halfway point. A higher EC50 goes with a need for much substance. The IC50 is the midpoint of a concentration-inhibition curve.

Among the data in ChEMBL document CHEMBL5120970, “Cryptic Epoxytiglianes from the Kernels of the Blushwood Tree (Fontainea picrosperma)” (J Nat Prod, 2022) are EC50 and IC50 values, retold here.

The structures appear in SMILES notation.

One assay deals with Neutrophil. Kind of assay: Induction of ROS production in human polymorphonuclear neutrophils incubated for 10 mins by DHE staining based fluorescence assay. The class given is functional, cell-based.
The test system of the next assay is K562. Kind of assay: Cytotoxicity against PKC sensitive human K562 cells assessed as inhibition of cell growth measured after 7 days by Cell Titer Aqueous96 one solution reagent assay. The class given is functional, cell-based. The settings on record: K562, 168 h.

The molecule `C/C=C(\C)C(=O)O[C@@H]1[C@@H](C)[C@@]2(O)[C@H]([C@@H]3C(C)(C)[C@]13OC(=O)[C@@H](C)CC)[C@@H]1O[C@]1(COC(=O)CCCCCCC/C=C\C/C=C\CCCCC)[C@@H](O)[C@]1(O)C(=O)C(C)=C[C@H]12` registered an EC50 with Neutrophil of more than 3630 nM. Besides, in the assay on K562, the half-inhibitory concentration (IC50) amounted to 124 nM.

In turn, `C/C=C(\C)C(=O)O[C@@H]1[C@@H](C)[C@@]2(O)[C@H]([C@@H]3C(C)(C)[C@]13OC(=O)[C@@H](C)CC)[C@@H]1O[C@]1(CO)[C@@H](O)[C@]1(O)C(=O)C(C)=C[C@H]12` [TIGILANOL TIGLATE] returned a half-maximal effective concentration (EC50) in the assay with Neutrophil of 125 nM. Further, the IC50 in the assay with K562 was 11.9 nM.
